PubChem BioAssay (NCI)
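Each compound was tested at five concentrations against cells in 96-well plates for 48 hours. TGI: total growth inhibition.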

How the values were obtained:
Experiment in all cases: DTP human tumour cell line panel, 48 h
COLO 205 colon = system: COLO 205 colon
MCF7 breast = system: MCF7 breast
BT-549 breast = system: BT-549 breast
KM12 colon = system: KM12 colon
OVCAR-4 ovarian = system: OVCAR-4 ovarian
MDA-MB-435 = system: MDA-MB-435
UO-31 renal = system: UO-31 renal
HCC-2998 colon = system: HCC-2998 colon
SK-MEL-28 melanoma = system: SK-MEL-28 melanoma
SF-539 CNS = system: SF-539 CNS
HCT-15 colon = system: HCT-15 colon
SK-MEL-5 melanoma = system: SK-MEL-5 melanoma
ACHN renal = system: ACHN renal
HT29 colon = system: HT29 colon
NCI-H522 lung = system: NCI-H522 lung
UACC-62 melanoma = system: UACC-62 melanoma
SF-295 CNS = system: SF-295 CNS
UACC-257 melanoma = system: UACC-257 melanoma
CCRF-CEM leukemia = system: CCRF-CEM leukemia
A549 NSCLC = system: A549 NSCLC
TK-10 renal = system: TK-10 renal
SF-268 CNS = system: SF-268 CNS
PC-3 prostate = system: PC-3 prostate
HS 578T breast = system: HS 578T breast
MDA-N = system: MDA-N
LOX IMVI melanoma = system: LOX IMVI melanoma
SK-OV-3 ovarian = system: SK-OV-3 ovarian
OVCAR-3 ovarian = system: OVCAR-3 ovarian
NCI-H460 lung = system: NCI-H460 lung
NCI-H23 lung = system: NCI-H23 lung
A498 renal = system: A498 renal
MALME-3M melanoma = system: MALME-3M melanoma
MOLT-4 leukemia = system: MOLT-4 leukemia
786-0 renal = system: 786-0 renal
OVCAR-8 ovarian = system: OVCAR-8 ovarian
SNB-19 CNS = system: SNB-19 CNS
NCI/ADR-RES ovarian = system: NCI/ADR-RES ovarian
NCI-H226 lung = system: NCI-H226 lung
EKVX NSCLC = system: EKVX NSCLC
U251 CNS = system: U251 CNS
T-47D breast = system: T-47D breast
IGROV1 ovarian = system: IGROV1 ovarian
HOP-92 NSCLC = system: HOP-92 NSCLC
HOP-62 NSCLC = system: HOP-62 NSCLC
DU-145 prostate = system: DU-145 prostate
OVCAR-5 ovarian = system: OVCAR-5 ovarian
SR leukemia = system: SR leukemia
SNB-75 CNS = system: SNB-75 CNS
SN12C renal = system: SN12C renal
MDA-MB-231 breast = system: MDA-MB-231 breast
SW-620 colon = system: SW-620 colon
K-562 leukemia = system: K-562 leukemia
HCT-116 colon = system: HCT-116 colon
CAKI-1 renal = system: CAKI-1 renal
M14 melanoma = system: M14 melanoma
RXF 393 renal = system: RXF 393 renal
HL-60(TB) leukemia = system: HL-60(TB) leukemia
SK-MEL-2 melanoma = system: SK-MEL-2 melanoma
RPMI-8226 leukemia = system: RPMI-8226 leukemia

## CC1=C/C(=N\O)C(C(O)(C(F)(F)F)C(F)(F)F)C(C)(C)C1 (centres undefined)
COLO 205 colon
  TGI: > 10 µM
MCF7 breast
  TGI: > 10 µM
BT-549 breast
  TGI: > 10 µM
KM12 colon
  TGI: > 10 µM
OVCAR-4 ovarian
  TGI: > 10 µM
MDA-MB-435
  TGI: > 10 µM
UO-31 renal
  TGI: > 10 µM
HCC-2998 colon
  TGI: > 10 µM
SK-MEL-28 melanoma
  TGI: > 10 µM
SF-539 CNS
  TGI: > 10 µM
HCT-15 colon
  TGI: > 10 µM
SK-MEL-5 melanoma
  TGI: > 10 µM
ACHN renal
  TGI: > 10 µM
HT29 colon
  TGI: > 10 µM
NCI-H522 lung
  TGI: > 10 µM
UACC-62 melanoma
  TGI: > 10 µM
SF-295 CNS
  TGI: > 10 µM
UACC-257 melanoma
  TGI: > 10 µM
CCRF-CEM leukemia
  TGI: > 10 µM
A549 NSCLC
  TGI: > 10 µM
TK-10 renal
  TGI: > 10 µM
SF-268 CNS
  TGI: > 10 µM
PC-3 prostate
  TGI: > 10 µM
HS 578T breast
  TGI: > 10 µM
MDA-N
  TGI: > 10 µM
LOX IMVI melanoma
  TGI: > 10 µM
SK-OV-3 ovarian
  TGI: > 10 µM
OVCAR-3 ovarian
  TGI: > 10 µM
NCI-H460 lung
  TGI: > 10 µM
NCI-H23 lung
  TGI: > 10 µM
A498 renal
  TGI: > 10 µM
MALME-3M melanoma
  TGI: > 10 µM
MOLT-4 leukemia
  TGI: > 10 µM
786-0 renal
  TGI: > 10 µM
OVCAR-8 ovarian
  TGI: > 10 µM
SNB-19 CNS
  TGI: > 10 µM
NCI/ADR-RES ovarian
  TGI: > 10 µM
NCI-H226 lung
  TGI: > 10 µM
EKVX NSCLC
  TGI: > 10 µM
U251 CNS
  TGI: > 10 µM
T-47D breast
  TGI: > 10 µM
IGROV1 ovarian
  TGI: > 10 µM
HOP-92 NSCLC
  TGI: > 10 µM
HOP-62 NSCLC
  TGI: > 10 µM
DU-145 prostate
  TGI: > 10 µM
OVCAR-5 ovarian
  TGI: > 10 µM
SR leukemia
  TGI: > 10 µM
SNB-75 CNS
  TGI: > 10 µM
SN12C renal
  TGI: > 10 µM
MDA-MB-231 breast
  TGI: > 10 µM
SW-620 colon
  TGI: > 10 µM
K-562 leukemia
  TGI: > 10 µM
HCT-116 colon
  TGI: > 10 µM
CAKI-1 renal
  TGI: > 10 µM
M14 melanoma
  TGI: > 10 µM

## COc1cc(S(=O)(=O)Nc2ccc(-c3csc(N)n3)cc2)ccc1Cl
COLO 205 colon
  TGI: 33.6 µM
MCF7 breast
  TGI: 29.9 µM
BT-549 breast
  TGI: 43.1 µM
OVCAR-4 ovarian
  TGI: 27.9 µM
MDA-MB-435
  TGI: 46.9 µM
UO-31 renal
  TGI: 37.2 µM
RXF 393 renal
  TGI: 33.8 µM
SK-MEL-28 melanoma
  TGI: 48.5 µM
SF-539 CNS
  TGI: > 100 µM
HCT-15 colon
  TGI: 43.6 µM
SK-MEL-5 melanoma
  TGI: 30.6 µM
ACHN renal
  TGI: 32.8 µM
HT29 colon
  TGI: 35.8 µM
NCI-H522 lung
  TGI: 42.4 µM
UACC-62 melanoma
  TGI: 30 µM
CCRF-CEM leukemia
  TGI: 53.5 µM
A549 NSCLC
  TGI: 39.6 µM
SF-268 CNS
  TGI: 76.6 µM
PC-3 prostate
  TGI: 29.7 µM
HS 578T breast
  TGI: > 100 µM
MDA-N
  TGI: 38.5 µM
LOX IMVI melanoma
  TGI: 34.8 µM
OVCAR-3 ovarian
  TGI: 28.9 µM
NCI-H23 lung
  TGI: 40.1 µM
A498 renal
  TGI: 59.2 µM
MALME-3M melanoma
  TGI: 31.4 µM
MOLT-4 leukemia
  TGI: 31.7 µM
786-0 renal
  TGI: 30 µM
OVCAR-8 ovarian
  TGI: 40.7 µM
SNB-19 CNS
  TGI: 33.8 µM
NCI/ADR-RES ovarian
  TGI: 83.3 µM
NCI-H226 lung
  TGI: 77.5 µM
EKVX NSCLC
  TGI: 30.2 µM
T-47D breast
  TGI: 23 µM
HL-60(TB) leukemia
  TGI: 43.6 µM
HOP-92 NSCLC
  TGI: 39.5 µM
DU-145 prostate
  TGI: 32.4 µM
SK-MEL-2 melanoma
  TGI: 35 µM
OVCAR-5 ovarian
  TGI: 40.4 µM
SR leukemia
  TGI: 48.4 µM
SNB-75 CNS
  TGI: 39.2 µM
SN12C renal
  TGI: 38.5 µM
MDA-MB-231 breast
  TGI: 31.4 µM
SW-620 colon
  TGI: 58.5 µM
K-562 leukemia
  TGI: 44.3 µM
HCT-116 colon
  TGI: 29.7 µM
CAKI-1 renal
  TGI: 45 µM
M14 melanoma
  TGI: 35 µM
RPMI-8226 leukemia
  TGI: 65.1 µM
